What was measured:
human 5-HT2C receptor = biological target: T1, human 5-HT2C receptor (Homo sapiens, UniProt P28335); test: Serotoninergic 5-HT2C receptor binding study, [3H]-mesulergine; details: membranes from CHO cells expressing human 5-HT2C
T1 construct: expressed in transfected cells
T1 sequence (P28335 33-458): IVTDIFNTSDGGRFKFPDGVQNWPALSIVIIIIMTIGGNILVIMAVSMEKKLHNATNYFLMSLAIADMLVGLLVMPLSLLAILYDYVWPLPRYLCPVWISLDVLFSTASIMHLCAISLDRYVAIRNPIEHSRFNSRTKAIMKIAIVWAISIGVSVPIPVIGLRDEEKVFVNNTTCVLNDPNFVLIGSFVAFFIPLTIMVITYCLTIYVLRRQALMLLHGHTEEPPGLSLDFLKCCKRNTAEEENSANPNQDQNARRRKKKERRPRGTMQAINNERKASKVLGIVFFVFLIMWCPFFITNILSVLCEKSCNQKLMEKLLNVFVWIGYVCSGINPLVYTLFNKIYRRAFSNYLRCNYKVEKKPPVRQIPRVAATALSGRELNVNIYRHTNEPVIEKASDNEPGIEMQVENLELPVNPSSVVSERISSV
Procedure: The affinity of the compounds for the human 5-HT2C receptor is evaluated on membrane preparations from CHO cells stably expressing that receptor.
Incubation is carried out in 50mM TRIS buffer, pH 7.4 containing 10 mM MgCl2 and 0.1% BSA, in the presence of [^3H]-mesulergine (InM) and 25 fmol/ml of receptor. Non-specific binding is determined in the presence of 10 μM mianserin.
The reaction is stopped by the addition of 50 mM TRIS buffer, pH 7.4 followed by a filtration step and 3 successive rinses: the radioactivity bound to the membranes remaining on the filters (GF/B pretreated with 0.1% PEI) is determined by liquid scintillation counting.

MT1 receptor = MT1 receptor (Homo sapiens, UniProt P48039); test: Melatonin MT1 receptor binding study, 2-[125I]-iodomelatonin; details: 2-[125I]-iodomelatonin radioligand
Procedure: (§1) The MT1 or MT2 receptor binding experiments are carried out using 2-[^125I]-iodomelatonin as reference radioligand. The radioactivity retained is determined using a liquid scintillation counter.
(§2) Competitive binding experiments are then carried out in triplicate using the various test compounds. A range of different concentrations is tested for each compound. The results enable the binding affinities of the compounds tested (Ki) to be determined.

MT2 receptor = biological target: T2, MT2 receptor (Homo sapiens, UniProt P49286); test: Melatonin MT2 receptor binding study, 2-[125I]-iodomelatonin; details: 2-[125I]-iodomelatonin radioligand
T2 sequence (P49286 1-362): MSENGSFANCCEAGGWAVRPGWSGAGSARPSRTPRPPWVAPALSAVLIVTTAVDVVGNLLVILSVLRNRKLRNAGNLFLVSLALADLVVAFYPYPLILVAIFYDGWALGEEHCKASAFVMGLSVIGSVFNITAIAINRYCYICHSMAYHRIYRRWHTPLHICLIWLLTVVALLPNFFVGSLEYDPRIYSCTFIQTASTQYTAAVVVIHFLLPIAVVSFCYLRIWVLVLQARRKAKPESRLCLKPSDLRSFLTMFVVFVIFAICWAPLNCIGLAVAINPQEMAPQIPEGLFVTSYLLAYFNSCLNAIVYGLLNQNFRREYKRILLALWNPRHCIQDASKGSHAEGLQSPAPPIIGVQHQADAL
Procedure: as §1, §2

MT1 receptor, sequence (P48039 whole entry): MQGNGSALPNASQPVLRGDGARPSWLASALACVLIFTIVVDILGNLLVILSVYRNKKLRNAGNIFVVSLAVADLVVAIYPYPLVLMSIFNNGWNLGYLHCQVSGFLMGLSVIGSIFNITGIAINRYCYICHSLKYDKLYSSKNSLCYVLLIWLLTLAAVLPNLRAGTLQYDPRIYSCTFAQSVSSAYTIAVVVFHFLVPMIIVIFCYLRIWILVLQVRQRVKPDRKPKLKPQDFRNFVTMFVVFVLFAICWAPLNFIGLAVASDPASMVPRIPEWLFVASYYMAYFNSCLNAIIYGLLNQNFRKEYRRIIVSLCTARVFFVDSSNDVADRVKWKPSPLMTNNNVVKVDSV

- Ki (human 5-HT2C receptor): 26000 nM
- Ki (MT1 receptor): 4.9 nM
- Ki (MT2 receptor): 8.9 nM
SMILES: COCC(CNC(C)=O)c1cccc2ccc(OC)cc12 (stereo not drawn) [Example 6, N-[3-Methoxy-2-(7-methoxy-1-naphthyl)propyl]acetamide]
